Assay results taken from paper PMC8121805, “Discovery of first-in-class inhibitors of ASH1L histone methyltransferase with anti-leukemic activity” (Nature Communications, 2021).
Entries after “also recorded” stand apart in the source; their conditions may differ.

Tests used:
ASH1L SET domain = molecular target: T1, ASH1L SET domain (Homo sapiens, UniProt Q9NR48); assay: NMR titration (1H-15N TROSY-HSQC); format: binding; conditions: linear chemical shift perturbations up to 1 mM
T1 construct: ASH1L SET domain (amino acids 2069–2288) was expressed and purified; Mocr (N, cleaved yes); made in house; host or cells: E. coli BL21(DE3)

ASH1L S2259M = molecular target: T2, ASH1L S2259M (Homo sapiens, UniProt Q9NR48, S2264M); assay: NMR binding to S2259M mutant; conditions: NMR chemical shift perturbations
T2 construct: ASH1L SET domain (2069–2288) in the buffer; made in house
Description: For fragment screening, we used an in-house library of 1600 fragment-like compounds with the following properties: average Mw = 183 Da (range of 84–345 Da), mean clogP = 1.5 (from −2.5 to 3.7), hydrogen bond acceptors: from 0 to 6 (median = 3), hydrogen bond donors: 0 to 3 (median = 1).
Supplementary Figure 2. Binding of ASH1L inhibitors. (a) Superposition of the H- N TROSY-HSQC spectra of 100 µM ASH1L SET with 5% DMSO (black) or with 1 mM of compound 1 (red). Most perturbed residues are marked in boxes. (b) Superposition of the crystal structure of ASH1L SET domain (4YNM in PDB) and S2259M mutant of ASH1L (4YNP in PDB). (c) Superposition of the 1H-15N TROSY-HSQC spectra of 100 µM ASH1L S2259M mutant

Kd (ASH1L SET domain): > 1000 µM
SMILES: NC(=S)c1cccc(-n2cccc2)c1 [compound 1]
binding to ASH1L S2259M mutant (ASH1L S2259M): no binding; also recorded: not bind to the S2259M mutant
